Values of other authors as cited in patent US20130331260A1, “Odour-Control Superabsorbent” (BASF SE, priority 2012, published 2013).

How the values were obtained:
[1] = tested on: Helicobacter sp.
[2] = tested on: seed germination in urea-based fertiliser

NP(N)(=O)NC(=O)c1ccc(F)cc1 [fluorofamide, N-[Diaminophosphinyl]-4-fluorobenzamide]
antibacterial properties [1]: no measurable antibacterial properties | effect on seed germination compared with non-fluorinated analogue [2]: worked better than its non-fluorinated analogue in most cases
